According to patent publication US12492169B2, “Aminopyridine compound and application thereof” (priority 2020, dated 2025):
Values after ≈ are worked out from the molar mass of the structure shown.

What was measured:
[1] = Mouse pharmacokinetic evaluation, intraperitoneal injection after oral ABT; format: in vivo; details: ip, female CD-1 mice, 6 mpk, ABT 50 mg/kg orally 2 hours before, plasma; for AUC: read-out: Concentration Integral AUC; for Cmax: read-out: Peak Concentration Cmax; for Tmax: read-out: Peak Time Tmax
Description: Experimental Purpose: Using female CD-1 mice as test animals, LC/MS/MS was used to measure the plasma drug concentration at different times after intraperitoneal injection of the test compound. To study the pharmacokinetic behavior of the test compound in mice and evaluate its pharmacokinetic characteristics. Drug preparation: An appropriate amount of sample was weighed and then prepared into a clear or suspended solution. Administration scheme: Two healthy female CD-1 mice were taken, purchased from Beijing Vital River Laboratory Animal Technology Co., Ltd., and given a normal diet. The drug was administered through intraperitoneal injection. Operational steps: 2 hours before administration, 1-aminobenzotriazole (ABT) was orally administered (50 mg/kg, 5 mg/mL in normal saline), and after animal administration, about 30 μL of blood was collected at 0.083, 0.25, 0.5, 1, 2, 4, 8, and 24 hours, and placed in commercially available anticoagulant tubes pre-added with EDTA-K2. The tubes were centrifuged for 10 minutes to separate the plasma, and the plasma was stored at −60° C. The content of the target compound in the plasma sample was determined by LC/MS/MS method, and the experimental results are shown in Table 3.

[2] = system: Cryptococcus neoformans H99 ATCC 208821; experiment: Minimum inhibitory concentration (MIC) test against fungi; format: cell-based; details: Cryptococcus neoformans, ATCC208821, 72 h, ≥50% growth inhibition by eye, three independent experiments, read-out: MIC
Experimental: (§1) To test the minimum inhibitory concentration (MIC) and minimum effective concentration (MEC) of the drug against fungi.
Cryptococcus neoformans H99 ATCC 208821;
(§2) Test medium: RPMI1640 (containing 0.165 M MOPS, pH7.0)
(§3) On the day of the experiment, the compound in the bottle was dissolved in 100% DMSO to a stock solution concentration of 6.24 mg/mL. Then, the mixture was 10-fold diluted with DMSO to 0.624 mg/mL for use.
(§4) A 2-fold gradient dilution of the compound solution (0.624 mg/mL) was performed using DMSO on a 96-microwell plate (V-bottom) to obtain 100× working solutions (wells 1 to 11). 624, 312, 156, 78, 39, 20, 10, 5, 2.5, 1.25, 0.625 μg/mL. 100% DMSO was used as a positive control (well 12). This was the compound stock plate.
Cryptococcus neoformans H99 ATCC 208821 frozen at −80° C. was streaked on SDA plates and incubated aerobically in a 35±2° C. incubator for 48 hours.
(§5) On the day of the experiment, for strains Candida parapsilosis ATCC 22019, Candida albicans ATCC MYA-2876; Candida albicans WX-CA009; Candida glabrata ATCC15126; Candida tropicalis ATCC 750 and Cryptococcus neoformans H99 ATCC 208821, the plates were taken out and the clones on the plates were picked, suspended in normal saline, and then the turbidity of the fungal suspension was adjusted to OD600=0.2 using a turbidimeter. The fungal suspension contained about 3.0×10^6 CFU/mL. Then the turbidity-adjusted fungal suspension was diluted with a test medium to a concentration of about 3.0×10^3 CFU/mL. This was the inoculum.
(§6) 2 μL of 100× working solution from the compound stock plate (prepared in 3.1) was transferred to a round-bottomed 96-well plate (containing 98 μL of test medium), and then 100 μL of fungus inoculum (prepared in 3.2) was added to each well to obtain a MIC test plate. Therefore, the final test concentrations of the compounds were 6.24, 3.12, 1.56, 0.78, 0.39, 0.20, 0.10, 0.05, 0.025, 0.0125, 0.006 μg/mL. 1% DMSO was used as a growth control.
For Cryptococcus neoformans H99 ATCC 208821, all test plates were incubated aerobically in a 35±2° C. incubator for 72 hours.
(§7) After incubation, according to the criteria in Table 1 below, the test plate was observed by eye or microscope to determine the MIC (g/mL) and MEC (g/mL) of the test compound against yeast and mold.

[3] = system: Candida parapsilosis ATCC 22019; experiment: as above; format: cell-based; details: Lodderomyces parapsilosis, ATCC22019, 24 h, ≥50% growth inhibition by eye, three independent experiments (1st, 2nd, 3rd time), read-out: MIC
Experimental: as §1
(§8) Experimental strains: Candida parapsilosis ATCC 22019; Candida albicans ATCC MYA-2876; Candida albicans WX-CA009; Candida glabrata ATCC15126; Candida tropicalis ATCC 750;
as §2, §3, §4
(§9) Candida parapsilosis ATCC 22019 and Candida albicans ATCC MYA-2876; Candida albicans WX-CA009; Candida glabrata ATCC15126; Candida tropicalis ATCC 750 frozen at −80° C. were streaked on SDA plates and incubated aerobically in a 35±2° C. incubator for 24 hours.
as §5, §6
(§10) For strains Candida parapsilosis ATCC 22019; Candida albicans ATCC MYA-2876; Candida albicans WX-CA009; Candida glabrata ATCC15126; Candida tropicalis ATCC 750, all test plates were incubated aerobically in a 35±2° C. incubator for 24 hours.
as §7

[4] = system: Candida tropicalis ATCC 750; experiment: as above; format: cell-based; details: Candida tropicalis, ATCC750, 24 h, ≥50% growth inhibition by eye, three independent experiments, read-out: MIC
Experimental: as §1, §8, §2, §3, §4, §9, §5, §6, §10, §7

[5] = system: Candida albicans ATCC MYA-2876; experiment: as above; format: cell-based; details: Candida albicans, 24 h, ≥50% growth inhibition by eye, three independent experiments, read-out: MIC
Experimental: as §1, §8, §2, §3, §4, §9, §5, §6, §10, §7

[6] = system: Candida albicans WX-CA009; experiment: as above; format: cell-based; details: Candida albicans, WXCA009, 24 h, ≥50% growth inhibition by eye, three independent experiments, read-out: MIC
Experimental: as §1, §8, §2, §3, §4, §9, §5, §6, §10, §7

[7] = system: Candida glabrata ATCC15126; experiment: as above; format: cell-based; details: Nakaseomyces glabratus, ATCC15126, 24 h, ≥50% growth inhibition by eye, three independent experiments, read-out: MIC
Experimental: as §1, §8, §2, §3, §4, §9, §5, §6, §10, §7

[8] = system: Aspergillus flavus ATCC MYA-1004; experiment: Minimum effective concentration (MEC) test against fungi; format: cell-based; details: change of hyphae morphology by microscope, 48 hours, three independent experiments
Experimental: as §1
(§11) Aspergillus fumigatus ATCC-MYA-4609; Aspergillus flavus ATCC MYA-1004
as §2, §3, §4
(§12) Aspergillus fumigatus ATCC-MYA-4609; Aspergillus flavus ATCC MYA-1004 frozen at −80° C. were streaked on SDA plates and incubated aerobically in a 30±2° C. incubator for 6 days.
(§13) For strains Aspergillus fumigatus ATCC MYA-4609; Aspergillus flavus ATCC MYA-1004, after taking out the plate, 3 mL of 0.9% normal saline containing 0.1% Tween20 was added to the plate and the spores were gently collected. The spores were counted with a hemocytometer and the spore suspension was adjusted to about 5×10^6 spores/mL. Then the spore suspension was diluted to 0.8 to 1×10^5 spores/mL with a test medium.
as §6
(§14) For mold strains Aspergillus fumigatus ATCC-MYA-4609 and Aspergillus flavus ATCC MYA-1004, all test plates were incubated aerobically in a 35±° C. incubator for 48 hours.
as §7

[9] = system: Aspergillus fumigatus ATCC-MYA-4609; experiment: as above; format: cell-based; details: change of hyphae morphology by microscope, 48 hours, three independent experiments
Experimental: as §1, §11, §2, §3, §4, §12, §13, §6, §14, §7

[10] = system: Candida albicans ATCC MYA-2876; experiment: Mouse candidemia efficacy model; format: in vivo; details: female CD-1 mice infected with Candida albicans ATCC MYA-2876; 26 mg/kg intraperitoneally once a day for 7 days after 50 mg/kg ABT orally; n=5
Experimental: Experimental animals: female CD-1 mice, 7 weeks old, 27 to 29 g, n=5 or 8;
microbial pathogen: Candida albicans ATCC MYA-2876;
inoculation level and route: 2.0 to 4.0E+05 CFU/mouse, infected by tail vein injection;
treatment: The treatment started at 1 hour after infection. Firstly, ABT was administered orally, and 2 hours later, the test compound was injected intraperitoneally once a day for 7 days in total, with an administration volume of 10 mL/kg.
Observation indicators: Changes in body weight and mortality within 7 days after infection in each group of mice.

[11] = Pharmacokinetic evaluation in dogs (IV, PO); format: in vivo, beagle dogs; details: dog plasma
Description: (§15) Experimental Purpose: To evaluate the druggability of the compounds by measuring its pharmacokinetic properties in different animal species.
(§16) Experimental materials: CD-1 mice, Sprague-Dawley strain rats, beagle dogs, and crab-eating macaques.
(§17) Drug preparation: An appropriate amount of sample was weighed and then prepared into a clear or suspended solution.
(§18) Experimental procedure: The animal pharmacokinetic characteristics after intravenous injection and oral administration of the compound were tested using a standard protocol. The candidate compound was prepared as a clear solution (for intravenous injection) or a homogeneous suspension (for oral administration) during the experiment and administered to the animals as a single dose. Whole blood samples were collected at 0.083, 0.25, 0.5, 1, 2, 4, 8, and 24 hours, centrifuged at 3200 g for 10 minutes to separate the supernatant to obtain plasma samples. The plasma concentration was quantitatively analyzed by LC-MS/MS analysis method and pharmacokinetic parameters were calculated, such as peak concentration, peak time, clearance rate, half-life, area under the drug-time curve, etc.

[12] = Pharmacokinetic evaluation in rats (IV, PO); format: in vivo, Sprague-Dawley strain rats; details: rat plasma
Description: as §15, §16, §17, §18

[13] = in vivo; design: species or system crab-eating macaques
Description: as §15, §16, §17, §18

Row | AUC [1] | Cmax [1] | Tmax [1] | MIC [2] | MIC [3] | MIC [4] | MIC [5] | MIC [6] | MIC [7] | time to complete decomposition into the parent drug WX004 [11] | time to complete decomposition into the parent drug WX004 [12] | time to complete decomposition into the parent drug WX004 ([13]; crab-eating macaque, crab-eating macaque (monkey)) | F % ([13]; monkey, po, 13.5 mg/kg) | Structure (SMILES) | MEC [8] | MEC [9] | protection from death caused by candidemia [10]
1 | 64 µM·h | 4.7 µM | 1.5 h | 1.56 µg/mL (≈ 4.74 µM) | 0.1 µg/mL (≈ 0.304 µM) | 0.05 µg/mL (≈ 0.152 µM) | 0.1 µg/mL (≈ 0.304 µM) | 0.05 µg/mL (≈ 0.152 µM) | 0.78 µg/mL (≈ 2.37 µM) |  |  |  |  | Cc1cc(C#CCc2ccc(COc3ccccn3)cc2)cnc1N [WX007] | 0.39 µg/mL | 0.39 µg/mL | 
2 | 75 µM·h | 4.7 µM | 4.3 h | 3.12 µg/mL (≈ 9.36 µM) | 0.05 µg/mL (≈ 0.15 µM) | 0.05 µg/mL (≈ 0.15 µM) | 0.05 µg/mL (≈ 0.15 µM) | 0.05 µg/mL (≈ 0.15 µM) | 0.78 µg/mL (≈ 2.34 µM) |  |  |  |  | Nc1ncc(C#CCc2ccc(COc3ccccn3)cc2)cc1F [WX008] | 0.39 µg/mL | 1.56 µg/mL | 
3 |  |  |  |  |  |  |  |  |  | ≤ 0.5 h | ≤ 0.5 h | ≤ 0.5 h | 89% | Nc1ccc(C#CCc2ccc(COc3ccccn3)cc2)c[n+]1COP(=O)(O)O [WX013] |  |  | 

Row | Structure (SMILES) | AUC [1] | Cmax [1] | Tmax [1] | MIC [2] | MIC [3] | MIC [4] | MIC [5] | MIC [6] | MIC [7] | time to complete decomposition into the parent drug WX004 [11] | time to complete decomposition into the parent drug WX004 [12] | time to complete decomposition into the parent drug WX004 ([13]; crab-eating macaque, crab-eating macaque (monkey)) | F % ([13]; monkey, po, 13.5 mg/kg) | MEC [8] | MEC [9] | protection from death caused by candidemia [10]
4 | Nc1ccc(C#CCc2ccc(Oc3cccc(F)n3)cc2)cn1 [WX009] | 67 µM·h | 11.4 µM | 0.75 h | 0.025 µg/mL (≈ 0.0783 µM) | 0.05 µg/mL (≈ 0.157 µM) | 0.1 µg/mL (≈ 0.313 µM) | 0.05 µg/mL (≈ 0.157 µM) | 0.05 µg/mL (≈ 0.157 µM) | 0.78 µg/mL (≈ 2.44 µM) |  |  |  |  | 0.39 µg/mL | 0.39 µg/mL | completely protect
